Assay results taken from US20220251081A1, “HETEROBICYCLIC INHIBITORS OF MAT2A AND METHODS OF USE FOR TREATING CANCER” (priority 2019, published 2022).
pIC50: −log10 of the molar value.

Assays:
[1] = system: SAM in HCT116 human colon carcinoma cell line with deleted MTAP gene; assay: Cellular assay of target engagement (SAM): SAM level by LC-MS/MS after 72 hrs; assay type: cell-based; details: HCT-116, IC50 score, read-out: Cell 72 h SAM Inhibition (MTAP −/−)
Procedure, shortened: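 MTAP-deleted HCT116 cells were seeded, then exposed 24 h later to a 10-point 3-fold compound dilution series for 72 h at 37 °C/5% CO2. They were lysed in cold 80% methanol/acetic acid containing d3-SAM internal standard. SAM was quantified by LC-MS/MS (MRM, m/z 399.2→250.1).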

[2] = biological target: T1, MAT2A homodimer (Homo sapiens, UniProt P31153); assay: Biochemical assay: inhibition of recombinant MAT2A homodimer (phosphate release, PiColorLock Gold); details: MAT2A IC50 score; read-out: Enzyme Inhibition
T1 construct: inferred from Ni sepharose purification and imidazole elution; made in house; host or cells: Sf9 insect cells, recombinant baculovirus (Bac to Bac, pFASTBAC1 vector)
Procedure, shortened: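 Baculovirus/Sf9-expressed, Ni-purified MAT2A at 4 μg/mL in pH 8.0 Tris/KCl/MgCl2/EDTA/BSA buffer, preincubated with compound 60 min at 25 °C. Started with ATP and L-methionine substrate mix (500 μM and 40 μM, stock in mix), 60 min at 25 °C; released phosphate by PiColorLock Gold against a phosphate standard curve.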

[3] = system: HCT116 MTAP-/-; assay: Inhibition of cellular proliferation, 4 days, Cell Titer Glo, HCT116 MTAP-/-; assay type: cell-based; details: Homo sapiens, HCT-116, 96 h, IC50 score, read-out: 4 Day Relative Growth Inhibition (MTAP −/−)
Procedure, shortened: (§1)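 Isogenic human colon carcinoma lines differing only in MTAP status, plated 24 h before dosing, then exposed for 4 days at 37 °C/5% CO2 to a 10-point 3-fold dilution series (0.2% DMSO final). Read-out is Cell Titer Glo ATP luminescence, blank-subtracted and normalised to in-plate DMSO control, plotted as % proliferation change versus log molar concentration.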

[4] = system: HCT116 MTAP +/+; assay: Inhibition of cellular proliferation, 4 days, Cell Titer Glo, HCT116 MTAP+/+; assay type: cell-based; details: Homo sapiens, HCT-116, 96 h, IC50 score, read-out: 4 Day Relative Growth Inhibition (MTAP +/+)
Procedure, shortened: as §1

T1 sequence (P31153 whole entry): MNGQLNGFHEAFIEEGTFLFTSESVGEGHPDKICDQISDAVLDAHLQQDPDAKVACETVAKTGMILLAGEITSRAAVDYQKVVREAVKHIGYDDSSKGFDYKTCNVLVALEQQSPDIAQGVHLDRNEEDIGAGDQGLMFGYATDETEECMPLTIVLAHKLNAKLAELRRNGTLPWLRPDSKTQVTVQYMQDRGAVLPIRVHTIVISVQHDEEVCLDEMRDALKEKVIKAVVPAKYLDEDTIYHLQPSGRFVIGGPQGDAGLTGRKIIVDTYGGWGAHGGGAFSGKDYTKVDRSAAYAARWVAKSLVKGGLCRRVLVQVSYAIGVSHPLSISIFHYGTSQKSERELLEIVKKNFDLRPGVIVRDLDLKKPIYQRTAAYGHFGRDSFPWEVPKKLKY

| SMILES | pIC50 [1] | pIC50 [2] | pIC50 [3] | pIC50 [4] |
| --- | --- | --- | --- | --- |
| CCOc1ccc2nc(-c3ccc4nn(C)cc4c3)c(=O)n(-c3ccc(Cl)cc3)c2n1 [Example 222, 4-(4-chlorophenyl)-6-ethoxy-2-(2-methyl-2H-indazol-5-yl)pyrido[2,3-b]pyrazin-3(4H)-one] | > 7.00 | > 7.00 | > 7.00 | ≤ 6.00 |
| Cn1cc2cc(-c3cc4ccc(OCC(F)(F)F)nc4n(-c4ccc(C5CC5)cc4)c3=O)ccc2n1 [Example 314] | > 7.00 | > 7.00 | > 7.00 | ≤ 6.00 |
| CCOc1ccc2cc(-c3ccc(OC)cc3)c(=O)n(-c3ccc(C4CC4)cc3)c2n1 [Example 163] | 6.00 to 7.00 | > 7.00 | 6.00 to 7.00 | ≤ 6.00 |
| Cn1cc2cc(-c3cc4ccc(OCC(F)(F)F)nc4n(-c4ccc(Br)cc4)c3=O)ccc2n1 [Example 319] | > 7.00 | > 7.00 | > 7.00 | ≤ 6.00 |
| COc1ccc(-n2c(=O)c(-c3ccc4nn(C)cc4c3)cc3ccc(OCC(F)(F)F)nc32)cc1 [Example 313] | > 7.00 | > 7.00 | > 7.00 | ≤ 6.00 |
| CCNc1ccc2nc(-c3ccc4nn(C)cc4c3)c(=O)n(-c3ccc(OC(F)F)cc3)c2n1 [Example 338] | > 7.00 | > 7.00 | > 7.00 | > 7.00 |
| COc1ccc(-n2c(=O)c(-c3ccc(=O)[nH]c3)cc3cnc(NCC(F)(F)F)nc32)cc1 [Example 235, 8-(4-methoxyphenyl)-6-(6-oxo-1,6-dihydropyridin-3-yl)-2-(2,2,2-trifluoroethylamino)pyrido[2,3-d]pyrimidin-7(8H)-one] | 6.00 to 7.00 | > 7.00 | 6.00 to 7.00 | ≤ 6.00 |
| CCOc1ccc2cc(-c3ccc4nn(C)cc4c3)c(=O)n(-c3ccc(OC(F)(F)F)cc3)c2n1 [Example 153] | > 7.00 | > 7.00 | > 7.00 | ≤ 6.00 |
| COc1ccc(-n2c(=O)c(-c3ccc4c(c3)OCO4)cc3cnc(NCC(F)(F)F)nc32)cc1 [Example 177] | > 7.00 | > 7.00 | ≤ 6.00 | ≤ 6.00 |
| [2H]C([2H])([2H])Oc1ccc(-n2c(=O)c(-c3ccc4nn(C)cc4c3)cc3ccc(OCC(F)F)nc32)cc1 [Example 149] | > 7.00 | > 7.00 | > 7.00 | 6.00 to 7.00 |
| CCOc1ccc2cc(-c3ccc(OC)cc3)c(=O)n(-c3ccc(C4CC4)nc3)c2n1 [Example 162] | 6.00 to 7.00 | > 7.00 | 6.00 to 7.00 | ≤ 6.00 |
| CCOc1ccc2cc(-c3ccc4nccn4c3)c(=O)n(-c3ccc(Cl)cc3)c2n1 [Example 197] | > 7.00 | > 7.00 | > 7.00 | ≤ 6.00 |
| [2H]C([2H])([2H])Oc1ccc(-n2c(=O)c(-c3ccc4nncn4c3)cc3ccc(OCC(F)F)nc32)cc1 [Example 220] | > 7.00 | > 7.00 | > 7.00 | ≤ 6.00 |
| [2H]C([2H])([2H])Oc1ccc(-n2c(=O)c(-c3ccc4nn(C)cc4c3)nc3ccc(OCC(F)(F)F)nc32)cc1 [Example 326] | > 7.00 | > 7.00 | > 7.00 | ≤ 6.00 |
| COc1ccc(-n2c(=O)c(-c3ccc4nc(C)n(C)c4c3)nc3ccc(OCC(F)(F)F)nc32)cc1 [Example 340] | > 7.00 | > 7.00 | > 7.00 | ≤ 6.00 |
| CCOc1ccc2nc(-c3ccc4nn(C)cc4c3)c(=O)n(-c3ccc(C4CC4)cc3)c2n1 [Example 330] | > 7.00 | > 7.00 | > 7.00 | ≤ 6.00 |

| SMILES | pIC50 [1] | pIC50 [2] | pIC50 [3] | pIC50 [4] |
| --- | --- | --- | --- | --- |
| COc1ccc(-n2c(=O)c(-c3ccc4nccn4c3)cc3cnc(NCC(F)(F)F)nc32)cc1 [Example 172] | > 7.00 | > 7.00 | 6.00 to 7.00 | ≤ 6.00 |
| CCOc1ccc2cc(-c3ccc4nncn4c3)c(=O)n(-c3ccc(OC)cc3)c2n1 [Example 217] | > 7.00 | > 7.00 | > 7.00 | ≤ 6.00 |
| CCNc1ccc(-n2c(=O)c(-c3ccc4nn(C)cc4c3)cc3ccc(OCC)nc32)cn1 [Example 145] | > 7.00 | > 7.00 | > 7.00 | ≤ 6.00 |
| COc1ccc(-n2c(=O)c(-c3ccc4nnccc4c3)cc3cnc(NCC(F)(F)F)nc32)cc1 [Example 186] | > 7.00 | > 7.00 | 6.00 to 7.00 | ≤ 6.00 |
| Cn1cc2cc(-c3nc4ccc(OCC(F)(F)F)nc4n(-c4ccc(Br)cc4)c3=O)ccc2n1 [Example 346, 4-(4-bromophenyl)-2-(2-methyl-2H-indazol-5-yl)-6-(2,2,2-trifluoroethoxy)pyrido[2,3-b]pyrazin-3(4H)-one] | > 7.00 | > 7.00 | > 7.00 | ≤ 6.00 |
| CCOc1ccc2cc(-c3ccc4nn(C)cc4c3)c(=O)n(-c3ccc(C4CC4)cc3)c2n1 [Example 165] | > 7.00 | > 7.00 | > 7.00 | ≤ 6.00 |
| CNc1ccc(-n2c(=O)c(-c3ccc4nn(C)cc4c3)cc3ccc(OCC(F)F)nc32)cn1 [Example 147] | > 7.00 | > 7.00 | > 7.00 | 6.00 to 7.00 |
| COc1ccc(-n2c(=O)c(-c3ccc4nc(N)n(C)c4c3)cc3ccc(OCC(F)(F)F)nc32)cc1 [Example 353, 3-(2-amino-1-methyl-1H-benzo[d]imidazol-6-yl)-1-(4-methoxyphenyl)-7-(2,2,2-trifluoroethoxy)-1,8-naphthyridin-2(1H)-one] | > 7.00 | > 7.00 | > 7.00 | ≤ 6.00 |
| [2H]C([2H])([2H])Oc1ccc(-n2c(=O)c(-c3ccc4nn(C)cc4c3)cc3ncc(OCC(F)F)nc32)cc1 [Example 344] | > 7.00 | > 7.00 | > 7.00 | ≤ 6.00 |
| CCOc1ccc2cc(-c3ccc4ncsc4c3)c(=O)n(-c3ccc(Cl)cc3)c2n1 [Example 203] | > 7.00 | > 7.00 | > 7.00 | ≤ 6.00 |
| CCOc1ccc2cc(-c3ccc4nncn4c3)c(=O)n(-c3ccc(OC(F)(F)F)cc3)c2n1 [Example 219] | > 7.00 | > 7.00 | 6.00 to 7.00 | ≤ 6.00 |
| CCOc1ccc2cc(-c3ccc4ncccc4c3)c(=O)n(-c3ccc(Cl)cc3)c2n1 [Example 160] | > 7.00 | > 7.00 | 6.00 to 7.00 | ≤ 6.00 |
| CCOc1ccc2cc(-c3ccc4nccn4c3)c(=O)n(-c3ccc(OC(F)F)cc3)c2n1 [Example 210] | > 7.00 | > 7.00 | > 7.00 | 6.00 to 7.00 |
| COc1ccc(-n2c(=O)c(-c3ccc4nn(C)cc4c3)nc3ccc(OCC(F)(F)F)nc32)cc1 [Example 327] | > 7.00 | > 7.00 | > 7.00 | ≤ 6.00 |
| Cn1cc2cc(-c3nc4ccc(OCC(F)F)nc4n(-c4ccc(OC(F)F)cc4)c3=O)ccc2n1 [Example 228] | > 7.00 | > 7.00 | > 7.00 | ≤ 6.00 |
| CCNc1ccc2cc(-c3ccc4nn(C)cc4c3)c(=O)n(-c3ccc(Cl)cc3)c2n1 [Example 310] | > 7.00 | > 7.00 | > 7.00 | 6.00 to 7.00 |
